Measurements from patent US20250346588A1, “IMIDAZOPYRIDINE AND OXAZOLOPYRIDINE DERIVATIVES AND ANALOGS THEREOF, METHODS OF PREPARATION THEREOF, METHODS OF HIF-1/2A PATHWAY INHIBITION, AND INDUCTION OF FERROPTOSIS” (KUDA THERAPEUTICS, INC., priority 2022, published 2025).

What was measured:
786-0 ccRCC cells = test: ICP-MS of cellular iron, zinc and copper; assay type: cell-based, human; conditions: 786-0 cells, 2.5 μM compound
Experimental: These studies were performed to determine the content of iron and other transition metals in cells after exposure the compounds described herein. 786-0 cells were seeded at 1.5 million cells/flask in T75 cm^2 flasks in DMEM+10% FBS, and allowed to adhere overnight. Cells were then treated with indicated concentrations of compounds in DMSO or DMSO alone (vehicle) for a further 24 h, after which cells were detached by trypsinization, counted, washed twice in phosphate-buffered saline (PBS) and pelleted. Experiments were performed using three replicate T75 cm^2 flasks per condition. A 5:1 mixture of nitric acid (OPTIMA Grade, 70%, Fisher Scientific) and ultrapure hydrogen peroxide (ULTREX II, 30%, Fisher Scientific) was added to cell pellets. This mixture was allowed to digest overnight, heated until dry, and resuspended in 2% nitric acid for analysis using an Agilent 7900 ICP-MS (Agilent Technologies, Santa Clara, CA). Calibration standard solutions for determination of Fe were prepared from Agilent multi-element calibration standard-2A. An Agilent Environmental Calibration Standard was used as an independent control. PBS-only control digestions were used to measure background. Metal readings were normalized to cell number. Data obtained from these studies for three replicate readings (with SEM) are shown in FIG. 3, which show an increase in cellular iron (Fe) content after treatment with indicated compounds.

Bioavailability studies = assay type: in vivo; conditions: mouse, in vivo, Swiss albino mice
[1] = system: RCC10 or 786-0 cells with stable overexpression of empty vector or ISCA2; test: Cell viability with ISCA2 overexpression; assay type: cell-based, human; conditions: 24h
[2] = system: RCC4 or 786-0 cells±pVHL re-expression; test: Cell viability with pVHL re-expression; assay type: cell-based, human; conditions: 48h
[3] = system: HIF-2α Iron-Responsive Element (IRE); test: HIF-2α IRE-Luc reporter assay; assay type: cell-based, human; conditions: 786-0 cells stably expressing HIF-2α IRE-Luc, 24h
Experimental: Screens for inhibitory activity of compounds described herein were performed using 786-0 ccRCC cells that stably express HRE-Luc: 5 copies of the hypoxia-responsive element (HRE) fused to the pGL3 luciferase reporter (Promega Corp, Madison WI). 786-0 cells are pVHL deficient and thus constitutively express HIF-2α independently of cellular oxygen tension. Since 786-0 cells lack HIF-1α, HRE-driven luciferase activity is primarily HIF-2α driven, and has been previously validated. Cells were maintained at log phase growth in […] (DMEM) with 10% FBS in a humidified incubator at 37° C. with 5% CO2. For screening assays, cells were seeded at a density of 4,000 cells in 50 μl of complete media/well in quadruplicate wells/point in a 96-well plate. After 24 h, 50 μl of a 2× concentration of test compound was added to each well. […] After 24 h treatment, luciferase activity was measured using the Steady-Glo Luciferase assay system (Promega Corp) according to the manufacturer's protocol. Cell viability was measured in quadruplicate parallel wells using resazurin as recommended by the manufacturer (R&D systems, Minneapolis, MN). […] Representative data determined using Steady-Glo luciferase and resazurin are shown in FIGS. 1A and 1B respectively, with error bars showing SD. […]

786-0 cells = test: Resazurin cell viability assay, with or without DFO and other inhibitors; assay type: cell-based, human
Experimental: Screens for inhibitory activity of compounds described herein were performed using 786-0 ccRCC cells that stably express HRE-Luc: 5 copies of the hypoxia-responsive element (HRE) fused to the pGL3 luciferase reporter (Promega Corp, Madison WI). 786-0 cells are pVHL deficient and thus constitutively express HIF-2α independently of cellular oxygen tension. Since 786-0 cells lack HIF-1α, HRE-driven luciferase activity is primarily HIF-2α driven, and has been previously validated. Cells were maintained at log phase growth in […] (DMEM) with 10% FBS in a humidified incubator at 37° C. with 5% CO2. For screening assays, cells were seeded at a density of 4,000 cells in 50 μl of complete media/well in quadruplicate wells/point in a 96-well plate. After 24 h, 50 μl of a 2× concentration of test compound was added to each well. Compounds were diluted from a 5-10 mM stock in DMSO and final concentrations of DMSO in each well in controls and treated wells were kept constant at ≤0.6% DMSO. After 24 h treatment, luciferase activity was measured using the Steady-Glo Luciferase assay system (Promega Corp) according to the manufacturer's protocol. Cell viability was measured in quadruplicate parallel wells using resazurin as recommended by the manufacturer (R&D systems, Minneapolis, MN). Data for luciferase and resazurin were normalized to DMSO treated controls (defining 100%) and wells containing assay reagent but no cells (defining 0%) and graphed using the log inhibitor versus normalized response option in Graphpad Prism 9.3.1 software. Representative data determined using Steady-Glo luciferase and resazurin are shown in FIGS. 1A and 1B respectively, with error bars showing SD. Filled diamonds, empty squares and empty triangles indicate treatment with 3, 8 and 22 respectively with results for HRE-Luc shown in FIG. 1A.
In view of the increased cellular iron concentrations induced by the compounds described herein, the involvement of iron in mediating cell death was determined. Cell viability assays were performed as described in Example 2 using resazurin as a cell viability readout and performed in the absence or presence of 100 μM of the iron chelator, DFO (D9533, MilliporeSigma, St Louis, MO). […] Viability IC50 values are shown in brackets.

HIF-1α and HIF-2α = test: Western blots for HIF-1α and HIF-2α in ccRCC cells; assay type: cell-based, human; conditions: 786-0 or RCC10 ccRCC cells, 24h, relative to GAPDH
Experimental: Western blots were performed to determine the effects of the compounds on levels of HIF-2α and other relevant proteins, whereas qPCR was performed to determine the effects of compounds on transcript levels of HIF target genes. 786-0 or RCC10 cells were plated at 1×10E5 cells/well in 2 ml DMEM with 10% FBS/well in 6-well tissue culture plates. Cells were allowed to adhere overnight in a humidified incubator at 37° C. with 5% CO2, after which the appropriate concentrations of compounds in DMSO were added. DMSO concentrations were kept constant in all wells. After 24 h exposure to the compounds, cells were lysed and subjected to western blotting according to standard protocols. Antibodies for HIF-1α and HIF-2α and GAPDH were purchased from Cell Signaling Technology (Danvers, MA), whereas antibodies to IRP2 and pVHL were from Santa Cruz Biotechnology (Dallas, TX), and GPX4 antibody was from R&D Systems, Inc (Minneapolis, MN). Representative data in FIG. 2 show a dose-dependent effect of compounds in decreasing HIF-1/2α. Compounds also impact cellular iron sensing given by increased IRP2, which taken together indicate that cells sense decreased amounts of available iron, which triggers the iron starvation response initiated by IRP2 stabilization. Representative data shown in FIG. 3D show a dose dependent effect of the compounds on GPX4, which may indicate decreased resistance to ferroptosis. […] The data also show increased expression of ISCA2 with pVHL re-expression.

bioavailability (Bioavailability studies; oral, read-out: Bioavailability F): 27.3%
half-life (Bioavailability studies; read-out: half-life (converted)): 3.61 h
Structure (SMILES): COc1ccc(-c2nnc(Nc3nc4c(OC)nccc4[nH]3)o2)cc1OC [Compound 26HCL, N-(4-Methoxy-1H-imidazo[4,5-c]pyridin-2-yl)-5-(3,4-dimethoxyphenyl)-1,3,4-oxadiazol-2-amine]
cellular iron (Fe), zinc (Zn) and copper (Cu) content (786-0 ccRCC cells): increases the content of iron, zinc and copper in cells
effect of ISCA2 overexpression on cell viability response to compound [1]: ISCA2 overexpression promotes resistance
effect of pVHL re-expression on cell viability response to compound [2]: re-expression of pVHL promotes resistance
effect on IRE-luciferase reporter activity normalized to resazurin [3]: decrease IRE-mediated translation of HIF-2α
mechanism of cell death (786-0 cells; 24h, co-treatment with DFO, NAC, liproxstatin or ZVAD-FMK): iron-oxidant dependent and apoptosis/caspase-independent mechanism of cell death
effect of DFO co-treatment on compound-mediated loss of cell viability (786-0 cells; DFO 100 μM, FIG. 4B): protective effects of DFO
effect on HIF-1α and HIF-2α protein (Western blot) (HIF-1α and HIF-2α): decreases HIF-1α and HIF-2α
